Consider 13 compounds from patent publication US6867320B2, “Substituted phenylalkanoic acid derivatives and use thereof” (Asahi Kasei Pharma Corporation, priority 2002, dated 2005).

Some results are limits rather than exact numbers.

Experiment [1] relates to zymosan-stimulated footpad edema. In words: Mouse zymosan-stimulated footpad edema reaction. It counts as in vivo. The note with it: ICR female mice, oral 0.1 to 500 mg/kg, compared with positive control group. The method, then: 3. Suppressing Effect on Mouse Zymosan-stimulated Footpad Edema Reaction A suppressing effect on footpad edema caused by zymosan as an inflammatory stimulant was studied by the following method. Groups of ICR female mice (6- to 7-week old) each consisting of eight mice were used for the test. A test compound was suspended or dissolved in purified water containing 0.5% methylcellulose and orally administered to the test animals at 0.1 to 500 mg/0.2 ml/kg. To the control group, purified water containing 0.5% methylcellulose was administered in a similar manner, which was not added with a test compound. One hour after the administration of the test compound, 0.02 ml of a suspension of zymosan suspended in physiological saline (Otsuka Pharmaceutical) at 1 mg/ml was subcutaneously administered to right hind leg footpad of each mouse. One and two hours after the administration of the zymosan suspension, volume of the right hind leg footpad was measured by using an apparatus for measuring a volume of mouse hind leg footpad edema (Unicom). A difference of the volume of footpad measured above and the footpad volume before the administration of the test compound measured beforehand was regarded as a volume of the edema. For the volume of the edema at 1 hour or 2 hours after the zymosan administration, a graph was prepared by indicating time in abscissa and the edema volume in ordinate, and an edema volume AUC (area under the curve) was obtained up to 2 hours by calculation using the following equation. Edema volume AUC (1·hour)=1/2×1×A+1×(A+B)/2 • A: Edema volume 1 hour after zymosan administration • B: Edema volume 2 hour after zymosan administration A suppression ratio on edema of test compound was obtained by calculation using the following equation. Edema suppression ratio (%)=[1−B/A]×100 • A: Edema volume AUC of positive control • B: Edema volume AUC of test compound administered group (2) Measurement Results

The test system of experiment [2] is PGE2 production from IL-1β-stimulated MG-63 cells. The experiment is described as follows: Suppressing action on PGE2 production from IL-1β-stimulated MG-63 cells. The experiment is classed as cell-based. The settings on record: Homo sapiens, IL-1β 1 ng/ml, 18 hours, read-out: PGE2 production suppression ratio. The method, boiled down: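 Human osteosarcoma MG-63 cells (2×10^4/well) switched to 0.5% FBS medium, treated with compound, then stimulated with IL-1β at 1 ng/ml final for 18 h. Supernatant PGE2 measured by EIA; suppression ratio calculated against stimulated and unstimulated wells.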

“3-(3-{6-[(2-aminoacetyl)amino]Naphthalen-2-yl}-4-cyclopentyl-methyloxyphenyl)propionic acid [Compound 078]”: in experiment [1], the “suppression of footpad edema caused by zymosan” value (from here on “suppression”) was “suppressed footpad edema”.

As for “3-[4-isopropyloxy-3-(1H-indol-5-yl)phenyl]propionate [Compound 173]”, the “suppression” value in experiment [1] was “suppressed footpad edema”. As to `O=C(O)CCc1ccc(OCCc2ccccc2F)c(-c2ccc3cc(O)ccc3c2)c1` [Compound 006, 3-{4-[2-(2-fluorophenyl)ethyloxy]-3-(6-hydroxynaphthalen-2-yl)phenyl}propionic acid], the inhibition at 0.4 µM in experiment [2] was at least 50%. Also, the “suppression” value in experiment [1] is on record as “suppressed footpad edema”. The corresponding values for `O=C(O)CCc1ccc(OCc2ccccc2F)c(-c2ccc3ccccc3c2)c1` [Compound 031, 3-[4-(2-fluorophenylmethyloxy)-3-(naphthalen-2-yl)phenyl]propionic acid] are at least 50% and “suppressed footpad edema”.

Turning to `O=C(O)CCc1ccc(OCC2CCCC2)c(-c2ccc3cc(NC(=O)CO)ccc3c2)c1` [Compound 079, 3-(4-cyclopentylmethyloxy-3-{6-[2-(hydroxyacetyl)amino]naphthalen-2-yl}phenyl)propionic acid], the “suppression” value in experiment [1] is reported as “suppressed footpad edema”. Take `O=C(O)CCc1ccc(OCCc2ccccc2F)c(-c2ccc3[nH]ccc3c2)c1` [Compound 106, 3-{4-[2-(2-fluorophenyl)ethyloxy]-3-(1H-indol-5-yl)phenyl}propionic acid]: the inhibition at 0.4 µM in experiment [2] is at least 50%. In addition, in experiment [1], the “suppression” value is reported as “suppressed footpad edema”. The corresponding values for `O=C(O)CCc1ccc(OCC2CCCC2)c(-c2cccc3[nH]ccc23)c1` [Compound 114, 3-[4-cyclopentylmethyloxy-3-(1H-indol-4-yl)phenyl]propionic acid] are at least 50% and “suppressed footpad edema”. The corresponding values for `O=C(O)CCc1ccc(OCc2c(Cl)cccc2Cl)c(-c2ccc3[nH]ccc3c2)c1` [Compound 164, 3-[4-(2,6-dichlorophenylmethyloxy)-3-(1H-indol-5-yl)phenyl]propionic acid] are at least 50% and “suppressed footpad edema”. With `COc1ccc(CCOc2ccc(CCC(=O)O)cc2-c2ccc3[nH]ccc3c2)cc1` [Compound 207, 3-{3-(1H-indol-5-yl)-4-[2-(4-methoxyphenyl)ethyloxy]phenyl}propionic acid], the inhibition at 0.4 µM in experiment [2] is at least 50%. Moreover, in experiment [1], the “suppression” value is recorded as “suppressed footpad edema”. In the same order, the values of `CN(C)c1ccc(CCOc2ccc(CCC(=O)O)cc2-c2ccc3[nH]ccc3c2)cc1` [Compound 215, 3-(4-{2-[4-(N,N-dimethylamino)phenyl]Ethyloxy}-3-[1H-indol-5-yl]phenyl)propionic acid] are at least 50% and “suppressed footpad edema”. In the same order, the values of `O=C(O)CCc1ccc(OCCOc2ccccc2)c(-c2ccc3[nH]ccc3c2)c1` [Compound 222, 3-{3-(1H-indol-5-yl)-4-[2-(phenyloxy)ethyloxy]phenyl}propionic acid] are at least 50% and “suppressed footpad edema”. `O=C(O)CCc1ccc(OCCOc2ccccc2Cl)c(-c2ccc3[nH]ccc3c2)c1` [Compound 224, 3-{4-[2-(2-chlorophenyloxy)ethyloxy]-3-(1H-indol-5-yl)phenyl}propionic acid]: the inhibition at 0.4 µM in experiment [2] is at least 50%. In addition, the “suppression” value in experiment [1] is “suppressed footpad edema”. `CC(C)(C)c1ccc(COc2ccc(CCC(=O)O)cc2-c2ccc3[nH]ccc3c2)cc1` [Compound 329]: the “suppression” value in experiment [1] was “suppressed footpad edema”.
